# Results as given in patent publication US20260069725A1, “LIGAND COMPOUND TARGETING PSMA ANTIGEN, AND CHELATE AND USE THEREOF IN DIAGNOSIS AND TREATMENT OF PROSTATE CANCER” (Chengdu StarRay Therapeutics Co., Ltd, priority 2021, published 2026).
# Test system: LNCaP tumor bearing mice
# Assay: SPECT/CT scanning, exposure of 177Lu labeled compounds in tumor and tissues
# Format: in vivo
# Conditions: in contrast to PSMA-617
# Protocol: The ^177Lu labeled precursor compound was diluted to 7.4 MBq (200 μCi)/200 […] with normal saline, and each tumor bearing mouse was given about 7.4 MBq (200 μCi) of the drug via tail vein injection. SPECT/CT scanning was performed on the mice at 1, 4, 8, 24, 48 and 72 h after administration, respectively, with the mice under continuous anesthesia with isoflurane, lying prone on an examination bed. The acquisition method was static imaging 12 min SPECT, and medium resolution whole-body imaging CT. During the process, according to the recording table, the animal body weight, injection dose, injection time and residual dose were recorded, and the time of measuring the injection dose and the time of measuring the residual dose were recorded respectively. After scanning, the data were reconstructed, PMOD software was used to analyze and delineate each organ tissue and quantify the drug distribution therein, the images and data were saved, and the data were further subjected to statistical analysis.
# Drug exposure in each tissue was calculated (Table 1, where the values involving PSMA-D were the predicted values).
"exposure in the normal tissues, in words",Compound,"drug exposure in the LNCaP tumor, in words"
kept at a lower level,COc1ccc(C(=O)NCCN2CCN(C(=O)CCC(=O)N[C@@H](CCCCNC(=O)CN3CCN(CC(=O)O)CCN(CC(=O)O)CCN(CC(=O)O)CC3)C(=O)N3CCc4cc(C(=O)N[C@@H](Cc5ccc6ccccc6c5)C(=O)NCCCC[C@H](NC(=O)N[C@@H](CCC(=O)O)C(=O)O)C(=O)O)ccc4C3)CC2)cc1 [PSMA-L],greatly increase the drug exposure in the LNCaP tumor

# Same assay, conditions: labeled with 177Lu; about 7.4 MBq (200 μCi) tail vein; scans 1-72 h
Exposure in Bladder [h*ID %/g],Exposure in Bone [h*ID %/g],Exposure in Heart [h*ID %/g],Exposure in Kidney [h*ID %/g],Exposure in Liver [h*ID %/g],Exposure in Lung [h*ID %/g],Exposure in Muscle [h*ID %/g],Exposure in Spleen [h*ID %/g],Exposure in Tumor [h*ID %/g],Compound
553.2,9.939,23.31,77.45,48.92,40.93,36.36,54.27,346.9,"O=C(O)CC[C@H](NC(=O)N[C@@H](CCCCNC(=O)[C@H](Cc1ccc2ccccc2c1)NC(=O)[C@H]1CC[C@H](CNC(=O)CN2CCN(CC(=O)O)CCN(CC(=O)O)CCN(CC(=O)O)CC2)CC1)C(=O)O)C(=O)O [PSMA-617, reference compound]"
310.2,40.07,50.46,206,101.6,35.49,17.65,42.25,235,COc1ccc(CCCC(=O)NC(CCCNC(=N)N)C(=O)N[C@@H](CCCCNC(=O)CN2CCN(CC(=O)O)CCN(CC(=O)O)CCN(CC(=O)O)CC2)C(=O)NCC2CCC(C(=O)N[C@@H](Cc3ccc4ccccc4c3)C(=O)NCCCC[C@H](NC(=O)N[C@@H](CCC(=O)O)C(=O)O)C(=O)O)CC2)cc1 (stereo partly drawn) [PSMA-A]
157.3,20.62,54.22,330.5,53.28,50.04,32.14,31.81,370,COc1ccc(CCCC(=O)NC(Cc2c[nH]cn2)C(=O)N[C@@H](CCCCNC(=O)CN2CCN(CC(=O)O)CCN(CC(=O)O)CCN(CC(=O)O)CC2)C(=O)NCC2CCC(C(=O)N[C@@H](Cc3ccc4ccccc4c3)C(=O)NCCCC[C@H](NC(=O)N[C@@H](CCC(=O)O)C(=O)O)C(=O)O)CC2)cc1 (stereo partly drawn) [PSMA-B]
100.8,32.01,38.58,178.7,49.61,31.55,17.82,29.2,131.9,COc1ccc(CCCC(=O)NC(CCCCN)C(=O)N[C@@H](CCCCNC(=O)CN2CCN(CC(=O)O)CCN(CC(=O)O)CCN(CC(=O)O)CC2)C(=O)NCC2CCC(C(=O)N[C@@H](Cc3ccc4ccccc4c3)C(=O)NCCCC[C@H](NC(=O)N[C@@H](CCC(=O)O)C(=O)O)C(=O)O)CC2)cc1 (stereo partly drawn) [PSMA-C]
710.2,51.75,19.52,239,31.19,14.87,25.53,46.74,473.6,COc1ccc(CCCC(=O)NC(CCC(N)=O)C(=O)N[C@@H](CCCCNC(=O)CN2CCN(CC(=O)O)CCN(CC(=O)O)CCN(CC(=O)O)CC2)C(=O)NCC2CCC(C(=O)N[C@@H](Cc3ccc4ccccc4c3)C(=O)NCCCC[C@H](NC(=O)N[C@@H](CCC(=O)O)C(=O)O)C(=O)O)CC2)cc1 (stereo partly drawn) [PSMA-E]
633.7,94.85,581.6,669.2,263.1,348.3,253.3,55.76,1394,O=C(O)CCCCCCCCCCCCCCC(=O)N[C@@H](CCCCNC(=O)CN1CCN(CC(=O)O)CCN(CC(=O)O)CCN(CC(=O)O)CC1)C(=O)NCC1CCC(C(=O)N[C@@H](Cc2ccc3ccccc3c2)C(=O)NCCCC[C@H](NC(=O)N[C@@H](CCC(=O)O)C(=O)O)C(=O)O)CC1 (stereo partly drawn) [PSMA-F]
935.9,54.86,123.9,1589,193.2,86.51,71.89,83.39,226.4,O=C(O)CCCCCCCCCCCCC(=O)N[C@@H](CCCCNC(=O)CN1CCN(CC(=O)O)CCN(CC(=O)O)CCN(CC(=O)O)CC1)C(=O)NCC1CCC(C(=O)N[C@@H](Cc2ccc3ccccc3c2)C(=O)NCCCC[C@H](NC(=O)N[C@@H](CCC(=O)O)C(=O)O)C(=O)O)CC1 (stereo partly drawn) [PSMA-G]
1135,22.69,63.71,575,72.88,56.76,35.74,62.06,441.2,O=C(O)CCCCCCCCCCC(=O)N[C@@H](CCCCNC(=O)CN1CCN(CC(=O)O)CCN(CC(=O)O)CCN(CC(=O)O)CC1)C(=O)NCC1CCC(C(=O)N[C@@H](Cc2ccc3ccccc3c2)C(=O)NCCCC[C@H](NC(=O)N[C@@H](CCC(=O)O)C(=O)O)C(=O)O)CC1 (stereo partly drawn) [PSMA-H]
831.9,50.24,23.61,776.8,55.24,31.12,62.66,65.02,95.56,COc1ccc(C(=O)N[C@@H](CCCCNC(=O)CN2CCN(CC(=O)O)CCN(CC(=O)O)CCN(CC(=O)O)CC2)C(=O)NCC2CCC(C(=O)N[C@@H](Cc3ccc4ccccc4c3)C(=O)NCCCC[C@H](NC(=O)N[C@@H](CCC(=O)O)C(=O)O)C(=O)O)CC2)cc1 (stereo partly drawn) [PSMA-I]
585.9,32.71,54.52,79.78,314.2,278.5,26.77,83.81,281,COc1ccc(C(=O)NCCN2CCN(C(=O)CCC(=O)N[C@@H](CCCCNC(=O)CN3CCN(CC(=O)O)CCN(CC(=O)O)CCN(CC(=O)O)CC3)C(=O)NCC3CCC(C(=O)N[C@@H](Cc4ccc5ccccc5c4)C(=O)NCCCC[C@H](NC(=O)N[C@@H](CCC(=O)O)C(=O)O)C(=O)O)CC3)CC2)cc1 (stereo partly drawn) [PSMA-K]
499.3,15.5,40.58,148.8,62.47,51.83,37.2,34.43,1350,COc1ccc(C(=O)NCCN2CCN(C(=O)CCC(=O)N[C@@H](CCCCNC(=O)CN3CCN(CC(=O)O)CCN(CC(=O)O)CCN(CC(=O)O)CC3)C(=O)N3CCc4cc(C(=O)N[C@@H](Cc5ccc6ccccc6c5)C(=O)NCCCC[C@H](NC(=O)N[C@@H](CCC(=O)O)C(=O)O)C(=O)O)ccc4C3)CC2)cc1 [PSMA-L]

# Same assay, conditions: predicted values (PSMA-D)
Exposure in Bladder,Exposure in Bone,Exposure in Heart,Exposure in Kidney,Exposure in Liver,Exposure in Lung,Exposure in Muscle,Exposure in Spleen,Exposure in Tumor,Compound
200-800 h*ID %/g,10-80 h*ID %/g,20-100 h*ID %/g,50-500 h*ID %/g,50-200 h*ID %/g,20-200 h*ID %/g,20-100 h*ID %/g,20-100 h*ID %/g,200-1000 h*ID %/g,COc1ccc(CCCC(=O)NC(CO)C(=O)N[C@@H](CCCCNC(=O)CN2CCN(CC(=O)O)CCN(CC(=O)O)CCN(CC(=O)O)CC2)C(=O)NCC2CCC(C(=O)N[C@@H](Cc3ccc4ccccc4c3)C(=O)NCCCC[C@H](NC(=O)N[C@@H](CCC(=O)O)C(=O)O)C(=O)O)CC2)cc1 (stereo partly drawn) [PSMA-D]

# Test system: LNCaP tumor bearing mice
# Assay: Inhibition on tumor
# Format: in vivo
# Conditions: 14.8 MBq (400 μCi)
# Protocol: PSMA positive LNCaP cells were proliferated and harvested, and then inoculated subcutaneously in mice at an amount of 1×10^7/mouse. When the tumors grew to 200-400 mm^3, the mice were randomly grouped according to the tumor size (3-4 mice in each group), and were given the compound (400 μCi) of the present invention labeled with […] or the positive control compound PSMA-617 labeled with ^177Lu via tail vein injection, respectively. The tumor sizes and body weights of the mice were measured every 3 days after administration, and the death of the mice was recorded. The control group and the administration group were compared to understand the inhibition on LNCaP tumors by different drugs. On day 6 after administration, SPECT/CT scanning was performed on the administration group to understand the exposure of different drugs at the tumor sites during the treatment.
row,Compound,body weight of the animals during the treatment
1,O=C([O-])CN1CCN(CC(=O)[O-])CCN(CC(=O)NCC2CCC(C(=O)N[C@@H](Cc3ccc4ccccc4c3)C(=O)NCCCC[C@H](NC(=O)N[C@@H](CCC(=O)O)C(=O)O)C(=O)O)CC2)CCN(CC(=O)[O-])CC1.[177Lu+3] (stereo partly drawn) [^177Lu-PSMA-617],no significant difference
